Reference: ChEMBL document CHEMBL3817761, “Chenopodium album metabolites act as dual topoisomerase inhibitors and induce apoptosis in the MCF7 cell line” (Medchemcomm, 2016)
Calls of active or inactive are those of the source. No cut-off for these calls is given here.

Test system: MCF7
Assay: Induction of apoptosis in human MCF7 cells assessed as caspase 7 cleavage at 8.27 uM after 48 hrs by Western blot analysis
Type: functional, cell-based

## C[C@@H]1CC[C@@]2(OC1)O[C@H]1C[C@H]3[C@@H]4CC[C@H]5C[C@@H](O[C@@H]6O[C@H](CO)[C@H](O[C@@H]7O[C@H](CO)[C@@H](O)[C@H](O[C@@H]8OC[C@@H](O)[C@H](O)[C@H]8O)[C@H]7O[C@@H]7O[C@H](CO)[C@@H](O)[C@H](O)[C@H]7O)[C@H](O)[C@H]6O)CC[C@]5(C)[C@H]4CC[C@]3(C)[C@H]1[C@@H]2C [DEGALACTOTIGONIN]
  Activity: Active
